Data on 6 compounds can be found in US4618618A, “Compounds and compositions” (priority 1981, dated 1986).

Where a name gives a salt, the structure may show the parent alone. Read-outs that look alike come from different tables or passages of the source.

In data set [1] the test system is helminth. Particulars: ruminants sheep and cattle; cited from earlier work.
The conditions of data set [2]: cited from earlier work.
The test system of data set [3] is Ostertagia, Trichostrongylus and Haemonchus. Description: Anthelmintic efficacy in infected sheep (parasite counts at slaughter). The format is in vivo. The method, then:
To ensure that the compounds were tested in heavily infected animals sheep harbouring a heavy naturally acquired parasitic infection were chosen and further infected with larvae of the species Ostertagia, Trichostrongylus and Haemonchus. The infections were allowed to reach maturity. […] A second group of sheep, the controls, were injected with an aqueous solution of levamisole dihydrogen phosphate at a dose rate equivalent to 6 mg of levamisole base per kilogram of animal body weight.
Half of the sheep in each group were slaughtered 7 days after treatment and the parasites in the abomasum, small intestine, large intestine and lungs were counted.

Data set [4] in a line: Level of levamisole in the blood of cattle after injection (high pressure liquid chromatography).
Data set [5] is described as follows: Level of nitroxynil in the blood of cattle after injection (high pressure liquid chromatography).
The conditions of data set [6]: bovine, in vivo.
The test system of data set [7] is liver fluke. Particulars: mature and immature liver fluke; cited from earlier work.
Data set [8] can be described thus: in vivo. The following applies: bovine, 10 mg/kg.
[9] abbreviates: cattle, injected solution in polyethylene glycol 200 (Example 2 (a)), 17 mg of the salt/kg, each of four animals.
Where [10] appears, read: compared with levamisole dihydrogen phosphate.

Consider `c1ccc([C@H]2CN3CCSC3=N2)cc1` [levamisole, L-2,3,5,6-tetrahydro-6-phenylimidazo[2,1-b]thiazole], for which, in data set [1], the “activity as an anthelmintic agent relative to tetramisole” value is given as “approximately twice as active as tetramisole”. Moreover, in data set [2], the base catalysed hydrolysis result is “subject to base catalysed hydrolysis”.

`N#Cc1cc(I)c(O)c([N+](=O)[O-])c1.c1ccc([C@H]2CN3CCSC3=N2)cc1` [Example 1, L-2,3,5,6-tetrahydro-6-phenylimidazo[2,1-b]thiazolium 4-cyano-2-iodo-6-nitrophenoxide]: the “eradication of the helminth infection” value in data set [3] (sheep slaughtered 7 days after treatment, injected 14.5 mg of the salt/kg in polyethylene glycol 200) was “either completely or essentially completely eradicated”; in data set [3] (sheep slaughtered 28 days after treatment, injected 14.5 mg of the salt/kg in polyethylene glycol 200), “either completely or essentially completely eradicated”. The “level of levamisole in the blood 4 hours after the injection, % of the maximum level” value in data set [4] (cattle, injected solution in polyethylene glycol 200 (Example 2 (a)), 17 mg of the salt/kg, 4 hours) is given as “at least 50%”. The “time to maximum level of levamisole in the blood” value in data set [4] (setting [9]) was “approximately 2 hours”. In addition, the “duration of the level of levamisole in the blood (in words)” value in data set [4] (setting [10]) is given as “maintained for a longer period of time”. Moreover, the “rise of blood level of levamisole to a maximum (in words)” value is reported as “much more slowly” in data set [4] (setting [10]) and “more slowly” in data set [4] (compared with levamisole dihydrogen phosphate, listed as nitroxynil salt of levamisole). The “levamisole levels obtained in the blood (in words)” value in data set [4] (parenteral administration) is “therapeutic levels”. The “time to maximum level of nitroxynil in the blood” value in data set [5] (setting [9]) is listed as “approximately 24 hours”. In data set [5] (compared with nitroxynil N-ethyl-D-glucamine salt), the “rise of blood level of nitroxynil to a maximum (in words)” value is reported as “much more slowly”. Besides, in data set [5] (parenteral administration), the “nitroxynil levels obtained in the blood (in words)” value is “therapeutic levels”.

Regarding `O=P(O)(O)O.c1ccc([C@H]2CN3CCSC3=N2)cc1` [levamisole dihydrogen phosphate, reference compound], the “eradication of the helminth infection” value in data set [3] (sheep slaughtered 7 days after treatment, injected aqueous solution, 6 mg levamisole base/kg) is given as “either completely or essentially completely eradicated”; in data set [3] (sheep slaughtered 28 days after treatment, injected aqueous solution, 6 mg levamisole base/kg), “either completely or essentially completely eradicated”. The “time to maximum level of levamisole in the blood” value in data set [6] (6 mg/kg) was at most 1 h. The “course of the level of levamisole in the blood (in words)” value in data set [6] (sc) is “quickly rises to a maximum and quickly declines”.

Consider `N#Cc1cc(I)c(O)c([N+](=O)[O-])c1` [nitroxynil, 4-cyano-2-iodo-6-nitrophenol], for which the “activity against liver fluke” value in data set [7] was “effective against both mature and immature liver fluke”.

Consider `c1ccc(C2CN3CCSC3=N2)cc1` (racemic) [tetramisole, D,L-2,3,5,6-Tetrahydro-6-phenylimidazo[2,1-b]thiazole], for which the base catalysed hydrolysis entry in data set [2] is “subject to base catalysed hydrolysis”.

For `N#Cc1cc(I)c(O)c([N+](=O)[O-])c1` [nitroxynil N-ethyl-D-glucamine salt], in data set [8], the Tmax (in general, the time at which the peak concentration occurs) came to 4 h.
